Read-outs that look alike come from different tables or passages of the source.
Tests used:
[1] = test system: uninfected CEM cells; assay: Cellular toxicity in uninfected CEM cells (XTT); assay type: cell-based; conditions: cytotoxicity in 50% of uninfected CEM cells; read-out: TC50 (the source's name)
Description: Compound concentrations were 0.32, 1, 3.2, 10, 32, and 100 μM.

[2] = test system: HIV infected lymphocyte derived CEM cells; assay: Cellular Infection Assay, XTT cytopathic procedure in CEM cells (antiviral efficacy); assay type: cell-based
Description: Compounds were tested in lymphocyte derived CEM cells using the XTT cytopathic procedures and were performed at Southern Research Institute (Buckheit, et al., Antiviral Res., 1993;21:247; see also Weislow, et al., J. Nat. Cancer Inst., 1989;81:577). Compound concentrations were 0.32, 1, 3.2, 10, 32, and 100 μM. The EC50 represents the concentration of agent, which reduces HIV cytopathic effects 50% relative to untreated control. Cellular toxicity of the agents are estimated from the TC50 which represents the concentration of the agent which inhibits 50% of the viability of uninfected cells.
EC50 indicates the concentration of the drug which provide 50% protection against HIV.

[3] = target: T1, Recombinant HIV-1 protease (Human immunodeficiency virus type 1 group M subtype B, UniProt P04585); assay: HIV Protease Assay (Ki); assay type: biochemical; conditions: pH 6.2, 37° C., 40 μM substrate III
T1 construct: Recombinant HIV-1 protease (>96% purity); purchased Bachem Bioscience, Inc. (King of Prussia, Pa.)
Description: Recombinant HIV-1 protease (>96% purity) and HIV protease substrate III (the undecapeptide H-His-Lys-Ala-Arg-Val-Leu-Nph-Glu-Ala-Nle-Ser-NH2, 97% purity) were purchased from Bachem Bioscience, Inc. (King of Prussia, Pa.).
The methods employed follow the procedures of Tummino, et al., Archives of Biochemistry and Biophysics, 1995;316:523). […] (total volume, […]). […] The final inhibitor concentrations used were 0 (0.1, 0.2, in some experiments), 0.5, 1, 2, 5, 10, 20, 50, and 100 μM. The solution was mixed, incubated for 5 minutes and the reaction quenched by addition of trifluoracetic acid, 2% final. The (leu-p-nitro-phe) bond of the substrate is cleaved by the enzyme and substrate and products separated by reverse-phase HPLC (high pressure liquid chromatography). Absorbance was measured at 220 nm, peak areas determined, and percentage conversion to product used to calculate percentage control (=[% conversion (+inhibitor)/% conversion (−inhibitor)]×100).
Ki means inhibitory constant; it approximately the equilibrium binding constant for the binding of the inhibitor to the free enzyme.

Compound | CC50 [1] [µM] | EC50 ([2]; read-out: Antiviral Efficacy EC50; CEM cells, 50% protection against HIV cytopathic effects) [µM] | Ki ([3]; Inhibition of HIV Protease Ki) [pM] | melting point [°C] | EC50 ([2]; CEM cells, 50% protection against HIV cytopathic effects; read-out: Antiviral Efficacy EC50) [µM] | Ki ([3]; read-out: Inhibition of HIV Protease Ki) [pM]
CCCN(C1=C(O)CC(CCc2ccc(O)cc2)(C(C)C)OC1=O)c1cccc(NS(=O)(=O)c2ccc(C(F)(F)F)cn2)c1 (stereo not shown) [Example 2, 5-Trifluoromethyl-pyridine-2-sulfonic acid [3-({4-hydroxy-6-[2-(4-hydroxy-phenyl)-ethyl]-6-isopropyl-2-oxo-5,6-dihydro-2H-pyran-3-yl}-propyl-amino)-phenyl]-amide] | 71 | 1 | 83 | 107 to 110 | – | –
Pyridine-2-sulfonic acid [3-({4-hydroxy-6-[2-(4-hydroxy-phenyl)-ethyl]-6-isopropyl-2-oxo-5,6-dihydro-2H-pyran-3-yl}-propyl-amino)-phenyl]-amide [Example 14] | 210 | – | – | – | 1.6 | 540
